Experiments:
[1] = Visual interaction of active ingredient with polyelectrolyte PAA; type: physicochemical
Description: To determine interaction between polyelectrolytes (PE; Table 1) and active ingredients (AI; Table 2) aqueous stock solutions of about 200 g/L of the PE and of the active ingredients were prepared. The polyelectrolytes were diluted in water and stirred on magnetic stirrer for at least 30 minutes until a homogenous clear solution was obtained (ratios and amounts are presented in Table 4). The active ingredients were dissolved in water on magnetic stirrer or, if they weren't water soluble, suspended in water and milled by adding glass beads (1 mm) in a stainless steel metal beaker until they reach a volume-based average particle size below 20 μm (90% of particles below 20 μm), as determined by laser diffraction. After that the mixture was filtered with a sieve to remove glass beads and the filtrate was used for further analysis.
A polyelectrolyte solution, PAA or chitosan, was added to a 100-150 mL glass beaker, followed by water and an active ingredient solution/suspension. The mixture was stirred for at least 4 hours, and samples were observed after at least 16 hours. The visual observable interactions were divided into five categories (see Table 3). The categories were chosen by comparison to a blank sample containing the same concentration of active ingredient in water but without polyelectrolyte. […] Interactions were studied over a large range of active ingredient to polyelectrolyte ratios, including 10.000:1 (w/w), 1000:1 (w/w), 100:1 (w/w), 10:1 (w/w), 1:1 (w/w), 1:10 (w/w), 1:100 (w/w) and 1:1000) (w/w).

[2] = tested on: Lolium perenne (Ryegrass); experiment: Herbicide efficacy of glyphosate on rye grass; type: in vivo; conditions: for Extra reduction in dry weight: complex formation with PAA vs without PAA, first statement of b170; for Extra reduction in dry weight (second statement): second statement of b170
Source text: (§1) The efficacy of glyphosate is often sub-optimal because after drying of the glyphosate active ingredient on the plant tissue the rate of uptake is reduced (dry glyphosate is taken up poorly by the plant tissue). A complex of glyphosate-polycation with improved humectancy properties will remain longer as a wet film on the plant tissue, thereby enhancing uptake of glyphosate in the plant tissue and enhancing its herbicidal activity. In this experiment the effect of a formed complex on efficacy of glyphosate was assessed. The experiment was performed with hard water (500 ppm CaCO3) and with soft water (50 ppm CaCO3).
(§2) The following method was used. Seeds of rye grass and clover were sown in 2 L plastic pots (10 seeds pot) and grown in Lentse Potgrond (Horticoop; Bleiswijk, the Netherlands) in a greenhouse at 22° C. and at light 16 h and dark 8 h, humidity 75%. The experiment was carried out with 2 pots (replications) per treatment. The pots were watered as to keep the plants growing optimal. At the four-five leaf stage, when plants reached a height of 15-20 cm, they were sprayed with the glyphosate treatments with and without PAA (formulations: see Table 12). The spray was such that the plants were wetted completely and uniform. 12 days after the glyphosate treatments, the fresh weight and dry weight of the parts of the plants that were above ground were measured (grams). For dry weight, plants were first dried in an oven at 67 degree Celsius for 48 hours and weight was measured.
(§3) With the method described above rye grass plants were sprayed with two glyphosate formulations: • A. 2700 ppm glyphosate plus 270 ppm complexed with PAA at a 10:1 ratio (glyphosate:PAA; w/w) (formulation see Table 12). • B. 2700 ppm glyphosate without PAA (formulation, see Table 12).

Humectancy assay = type: physicochemical; conditions: dried at 54° C., then 97% relative humidity at 25° C.; weight after/before x 100
Description: The complexes of the interaction assay were used to conduct a humectancy assay. […] After reweighing on an analytical balance, the trays were placed in a climate chamber and stored for at least 2 days at 54° C. or until no further weight change was observed. […] The air tight box was 20 cm×12 cm×7 cm. In the box a chicken wire construct was used to create two levels with 10-20 ml of saturated solution of dipotassium sulfate in a petri dish in a lower level, and the samples in an upper level. Boxes were located into an incubator at 25° C. The boxes were incubated for at least 5 days at 25° C. before use to allow equilibration of temperature and humidity. Hereafter, the trays were reweighed.
The change in humectancy by combining a pesticide and polyelectrolyte is expressed as percent value by multiplying the sample weight after incubation (w2) with 100 divided with the sample weight before incubation (w1) using the following equation: […]
To evaluate the effect of the interaction of the active ingredient and polyelectrolyte on humectancy (synergetic/antagonistic/no effect), the determined Humectancy of the samples containing both active ingredient and polyelectrolyte “Humectancy (blend)” was divided by the theoretical value of Humectancy of the blend provided by respective proportion (% AI; % PE) of each pesticide and polyelectrolyte using the following equation: […]
According to this formula, a positive result of more than 1 is indicative of synergy.
The complexes obtained with the method of WO2010035118, with both ratios of 2:1 and 1:5 (PAA:AI) were tested for humectancy. […] For each sample, the test was carried in triplicate.
For each sample, the test was carried in triplicate.

[3] = tested on: Trifolium repens (Clover); experiment: Herbicide efficacy of glyphosate on clover; type: in vivo
Source text: as §1, §2, §3

[4] = Visual interaction with polyanion sodium lignosulfonate; type: physicochemical; conditions: visible complex formation
[5] = soft water, complex formation with PAA vs without PAA

O=C(O)CNCP(=O)(O)O [Glyphosate, N-(phosphonomethyl)glycine]
Visual observation category, Active ingredient: PAA ([1]; ratio active ingredient:PAA 1.000:1 (w/w)): N
Visual observation category, Active ingredient: PAA ([1]; ratio active ingredient:PAA 1:1 (w/w)): N
Visual observation category, Active ingredient: PAA ([1]; ratio active ingredient:PAA 1:10 (w/w)): N
Visual observation category, Active ingredient: PAA ([1]; ratio active ingredient:PAA 1:100 (w/w)): N
Visual observation category, Active ingredient: PAA ([1]; ratio active ingredient:PAA 1:1000 (w/w)): N
Visual observation category, Active ingredient: PAA ([1]; ratio active ingredient:PAA 10.000:1 (w/w)): N
Extra reduction in dry weight ([2]; hard water): 56%
Extra reduction in dry weight (second statement) ([2]; hard water): 48%
Extra reduction in dry weight ([2]; soft water): 44%
Extra reduction in dry weight (second statement) ([2]; soft water): 46%
Humectancy (Humectancy assay): 231.3%
Extra reduction in dry weight ([3]; hard water, complex formation with PAA (Formulation A) vs without PAA (Formulation B)): 74%
Extra reduction in fresh weight ([3]; hard water, complex formation with PAA vs without PAA): 38%
Extra reduction in dry weight [3, 5]: 47%
Extra reduction in fresh weight [3, 5]: 44%
Interaction with the polyanion sodium lignosulfonate [4]: did not form a visible complex

From patent US20230413808A1, “Bioactive complexes” (priority 2020, published 2023)
